According to patent US8871753B2, “Macrocyclic compounds and their use as kinase inhibitors” (Incyte Corporation, priority 2008, dated 2014):
pIC50: −log10 of the molar value. Counter-ions that a name gives are not always drawn. Like-named read-outs stand apart in the source and are kept apart here.

What was measured:
Assay type in all cases: biochemical
[1] = biological target: T1, human JAK3 (a.a. 781-1124) (Homo sapiens, UniProt P52333); assay: In vitro JAK kinase assay (HTRF, phosphorylation of a biotinylated peptide), JAK3
T1 construct: JAK3 (a.a. 781-1124); His tag (N); made in house; host or cells: insect cells (baculovirus)
Outline: (§1)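 Kinase reactions ran at room temperature for 1 h with ATP matched per isoform (JAK1 90 μM, JAK2 30 μM, JAK3 3 μM). After an EDTA stop, the phosphorylated biotin-peptide was read by HTRF using Eu-Py20 and SA-APC after 40 min binding.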

[2] = biological target: T2, Recombinant Human Anaplastic Lymphoma Kinase (Homo sapiens, UniProt Q9UM73); assay: ALK HTRF kinase assay
T2 construct: purchased Invitrogen, Carlsbad, Calif
Outline: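 IC50 was obtained from a logistic fit of signal versus log inhibitor concentration, using pre- and post-transition baselines and a Hill slope. The signal reported tyrosine phosphorylation of a biotinylated peptide by recombinant human kinase, detected as Eu-to-APC energy transfer.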

[3] = biological target: T3, human JAK2 (a.a. 828-1132) (Homo sapiens, UniProt O60674); assay: In vitro JAK kinase assay (HTRF, phosphorylation of a biotinylated peptide), JAK2
T3 construct: JAK2 (a.a. 828-1132); His tag (N); made in house; host or cells: insect cells (baculovirus)
Outline: as §1

TYK2 = TYK2 (Homo sapiens, UniProt P29597); assay: TYK2 kinase inhibition (Table A1)
[4] = biological target: T4, human JAK1 (a.a. 837-1142) (Homo sapiens, UniProt P23458); assay: In vitro JAK kinase assay (HTRF, phosphorylation of a biotinylated peptide), JAK1; conditions: read-out: JAK1 IC50
T4 construct: human JAK1 (a.a. 837-1142); His tag (N); made in house; host or cells: insect cells (baculovirus)
Outline: as §1

[5] = method AA1 (3 μM ATP) or AA2 (1000 μM ATP), not stated per value
[6] = compound at 500 nM or 1 mM, 90 μM ATP
[7] = method AA1 (30 μM ATP) or AA2 (1000 μM ATP), not stated per value
[8] = method AA1 (90 μM ATP) or AA2 (1000 μM ATP), not stated per value
[9] = compound at a concentration of 500 nM or 1 mM (not specified), cells shown as percentage
[10] = Table B1, cells without percent sign

T2 sequence (Q9UM73 19-1620): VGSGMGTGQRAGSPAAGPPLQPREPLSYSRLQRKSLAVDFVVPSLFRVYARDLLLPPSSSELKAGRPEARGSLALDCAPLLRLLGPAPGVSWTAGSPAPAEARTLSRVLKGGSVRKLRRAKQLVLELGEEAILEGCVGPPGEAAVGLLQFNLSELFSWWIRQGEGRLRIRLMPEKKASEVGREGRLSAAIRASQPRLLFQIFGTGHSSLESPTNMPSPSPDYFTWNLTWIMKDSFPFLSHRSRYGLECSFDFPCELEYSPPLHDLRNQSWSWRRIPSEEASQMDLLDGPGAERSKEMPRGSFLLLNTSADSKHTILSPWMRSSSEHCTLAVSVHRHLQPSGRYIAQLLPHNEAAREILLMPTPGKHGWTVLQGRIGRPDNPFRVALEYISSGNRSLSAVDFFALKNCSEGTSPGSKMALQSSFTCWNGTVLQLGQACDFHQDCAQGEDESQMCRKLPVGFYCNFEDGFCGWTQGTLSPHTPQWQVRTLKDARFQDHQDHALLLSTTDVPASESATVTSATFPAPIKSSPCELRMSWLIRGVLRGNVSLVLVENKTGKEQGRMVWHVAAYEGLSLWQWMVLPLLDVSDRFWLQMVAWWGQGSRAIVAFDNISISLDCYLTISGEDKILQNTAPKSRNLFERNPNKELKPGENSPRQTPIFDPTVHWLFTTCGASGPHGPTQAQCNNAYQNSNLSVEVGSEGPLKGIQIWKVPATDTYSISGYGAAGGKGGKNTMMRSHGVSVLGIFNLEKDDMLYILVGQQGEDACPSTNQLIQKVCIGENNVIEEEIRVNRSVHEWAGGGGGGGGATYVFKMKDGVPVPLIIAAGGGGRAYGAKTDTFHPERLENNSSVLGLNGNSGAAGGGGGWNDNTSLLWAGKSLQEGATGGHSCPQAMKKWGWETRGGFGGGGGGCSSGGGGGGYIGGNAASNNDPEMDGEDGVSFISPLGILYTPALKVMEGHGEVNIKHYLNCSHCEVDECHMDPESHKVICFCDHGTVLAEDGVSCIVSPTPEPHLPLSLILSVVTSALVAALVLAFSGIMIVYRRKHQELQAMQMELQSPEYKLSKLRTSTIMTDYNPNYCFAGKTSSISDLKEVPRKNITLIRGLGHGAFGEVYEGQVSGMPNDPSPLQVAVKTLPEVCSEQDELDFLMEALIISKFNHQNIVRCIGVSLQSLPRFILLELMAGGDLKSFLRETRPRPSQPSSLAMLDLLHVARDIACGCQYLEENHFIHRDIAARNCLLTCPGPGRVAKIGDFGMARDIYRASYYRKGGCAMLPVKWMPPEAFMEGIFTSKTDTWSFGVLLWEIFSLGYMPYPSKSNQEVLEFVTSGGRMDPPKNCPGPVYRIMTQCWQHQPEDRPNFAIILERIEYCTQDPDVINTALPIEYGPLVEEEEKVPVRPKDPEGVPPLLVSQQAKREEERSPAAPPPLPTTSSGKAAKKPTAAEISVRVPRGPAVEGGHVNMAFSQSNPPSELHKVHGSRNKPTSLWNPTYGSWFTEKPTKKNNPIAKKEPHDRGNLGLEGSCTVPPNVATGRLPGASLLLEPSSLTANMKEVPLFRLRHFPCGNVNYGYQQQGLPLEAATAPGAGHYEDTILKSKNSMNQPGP
T4 sequence (P23458 849-1154): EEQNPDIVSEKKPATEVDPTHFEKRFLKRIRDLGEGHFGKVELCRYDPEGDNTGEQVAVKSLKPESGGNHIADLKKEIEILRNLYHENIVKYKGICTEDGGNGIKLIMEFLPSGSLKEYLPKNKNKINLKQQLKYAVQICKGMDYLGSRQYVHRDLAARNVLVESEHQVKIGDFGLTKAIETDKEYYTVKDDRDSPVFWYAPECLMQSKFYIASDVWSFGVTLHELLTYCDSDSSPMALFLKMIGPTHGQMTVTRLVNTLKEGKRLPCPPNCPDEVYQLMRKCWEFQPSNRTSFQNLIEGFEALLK
T3 sequence (O60674 828-1132): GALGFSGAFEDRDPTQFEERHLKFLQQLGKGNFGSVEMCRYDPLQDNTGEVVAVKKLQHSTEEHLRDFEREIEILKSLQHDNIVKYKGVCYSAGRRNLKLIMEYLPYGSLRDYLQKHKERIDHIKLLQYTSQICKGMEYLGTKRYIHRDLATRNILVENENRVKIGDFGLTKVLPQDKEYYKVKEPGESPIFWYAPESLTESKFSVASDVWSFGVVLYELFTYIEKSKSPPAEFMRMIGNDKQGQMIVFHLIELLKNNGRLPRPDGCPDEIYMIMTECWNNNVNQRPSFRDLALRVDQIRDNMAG
Sequence of TYK2 (P29597 whole entry): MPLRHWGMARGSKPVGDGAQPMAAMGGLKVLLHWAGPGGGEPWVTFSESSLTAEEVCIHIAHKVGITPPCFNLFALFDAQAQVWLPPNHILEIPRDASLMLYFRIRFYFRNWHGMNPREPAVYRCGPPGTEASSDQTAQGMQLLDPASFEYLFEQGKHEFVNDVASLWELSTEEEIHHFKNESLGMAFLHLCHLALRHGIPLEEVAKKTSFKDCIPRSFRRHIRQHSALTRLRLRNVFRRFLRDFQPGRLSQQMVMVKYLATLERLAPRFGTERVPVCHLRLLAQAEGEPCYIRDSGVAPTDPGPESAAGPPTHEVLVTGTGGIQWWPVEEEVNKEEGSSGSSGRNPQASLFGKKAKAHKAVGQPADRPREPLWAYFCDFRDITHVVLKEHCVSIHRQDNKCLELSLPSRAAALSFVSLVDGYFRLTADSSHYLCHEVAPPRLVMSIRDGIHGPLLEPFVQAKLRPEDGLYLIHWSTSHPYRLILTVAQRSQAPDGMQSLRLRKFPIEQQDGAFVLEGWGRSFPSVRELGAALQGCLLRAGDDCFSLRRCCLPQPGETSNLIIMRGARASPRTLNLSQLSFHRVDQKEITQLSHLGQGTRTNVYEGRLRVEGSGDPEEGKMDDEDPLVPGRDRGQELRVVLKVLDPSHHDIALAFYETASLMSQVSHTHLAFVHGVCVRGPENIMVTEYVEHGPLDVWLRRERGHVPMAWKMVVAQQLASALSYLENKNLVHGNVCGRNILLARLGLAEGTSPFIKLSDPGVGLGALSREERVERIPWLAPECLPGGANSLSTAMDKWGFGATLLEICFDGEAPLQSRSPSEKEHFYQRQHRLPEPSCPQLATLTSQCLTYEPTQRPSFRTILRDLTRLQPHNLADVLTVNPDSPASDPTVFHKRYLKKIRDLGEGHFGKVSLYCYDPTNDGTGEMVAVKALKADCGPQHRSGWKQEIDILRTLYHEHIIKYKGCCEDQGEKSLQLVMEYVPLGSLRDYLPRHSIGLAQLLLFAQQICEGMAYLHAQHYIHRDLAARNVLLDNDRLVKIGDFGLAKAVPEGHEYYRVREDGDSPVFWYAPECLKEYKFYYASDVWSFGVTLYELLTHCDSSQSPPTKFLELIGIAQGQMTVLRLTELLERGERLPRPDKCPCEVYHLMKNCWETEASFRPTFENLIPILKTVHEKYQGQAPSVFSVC
T1 sequence (P52333 781-1124): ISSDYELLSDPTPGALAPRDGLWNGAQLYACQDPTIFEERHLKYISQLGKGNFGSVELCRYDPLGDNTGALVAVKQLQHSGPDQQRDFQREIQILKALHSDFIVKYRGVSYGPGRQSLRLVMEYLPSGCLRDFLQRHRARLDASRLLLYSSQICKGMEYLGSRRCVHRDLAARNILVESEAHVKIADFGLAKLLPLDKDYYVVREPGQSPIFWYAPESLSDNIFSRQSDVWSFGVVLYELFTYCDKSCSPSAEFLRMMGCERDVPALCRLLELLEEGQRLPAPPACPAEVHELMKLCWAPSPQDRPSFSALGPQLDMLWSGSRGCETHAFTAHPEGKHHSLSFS

| SMILES | pIC50 [1, 5] | ALK % of inhibition at a concentration of 500 nM or 1 mM [2, 6] [%] | pIC50 [3, 7] | pIC50 (TYK2) | pIC50 [4, 8] | pIC50 ([1]; Table B1) | pIC50 ([3]; Table B1) | pIC50 (TYK2; Table B1) | pIC50 ([4]; Table B1) | also measured |
| --- | --- | --- | --- | --- | --- | --- | --- | --- | --- | --- |
| Clc1cnc2nc1Nc1cccc(c1)CSCCc1cccc(c1)N2 [Example D32, 6-Chloro-15-thia-2,4,8,24-tetraazatetracyclo[16.3.1.1(3,7).1(9,13)]tetracosa-1(22),3(24),4,6,9(23),10,12,18,20-nonaene trifluoroacetate] | – | – | – | – | – | – | – | – | – | pIC50 ([1]; Table D1): 7.08; pIC50 ([2]; Table D1, 90 μM ATP): < 6.00; pIC50 ([3]; Table D1): 7.37; pIC50 (TYK2; Table D1): 7.35; pIC50 ([4]; Table D1): 7.39 |
| O=C(CCC1CCNCC1)Nc1ccc2cc1CCc1cncc(c1)Nc1ncc(Cl)c(n1)N2 [Example A117, N-[6-Chloro-2,4,8,18,22-pentaaazatetracyclo[14.3.1.1(3,7).1(9,13)]docosa-1(20),3(22),4,6,9(21),10,12,16,18-nonaen-12-yl]-3piperidin-4-ylpropanamide tris(trifluoroacetate)] | 6.80 | 25 | 7.54 | 7.36 | 8.00 | – | – | – | – | – |
| N[C@@H](CO)C(=O)Nc1ccc2cc1CCc1cccc(c1)Nc1ncc(Cl)c(n1)N2 [Example A109, (2S)-2-Amino-N-[6-chloro-2,4,8,22-tetraazatetracyclo[14.3.1.1(3,7).1(9,13)]docosa-1(20),3(22),4,6,9(21),10,12,16,18-nonaen-12-yl]-3-hydroxypropanamide bis(trifluoroacetate)] | 8.14 | 33 | 7.96 | 8.12 | 8.30 | – | – | – | – | – |
| Cc1cc(C(=O)N2CCC(CCC(=O)Nc3ccc4cc3CCc3cncc(c3)Nc3ncc(Cl)c(n3)N4)CC2)no1 [Example A125, N-[6-Chloro-2,4,8,18,22-pentaazatetracyclo[14.3.1.1(3,7).1(9,13)]docosa-1(20),3(22),4,6,9(21),10,12,16,18-nonaen-12-yl]-3-{1-[(5-methylisoxazol-3-yl)carbonyl]piperidin-4-yl}propanamide bis(trifluoroacetate)] | 7.05 | 25 | 8.31 | 8.28 | 8.77 | – | – | – | – | – |
| N#CCC(=O)Nc1ccc2cc1CCc1cccc(c1)Nc1ncc(Cl)c(n1)N2 [Example A65, N-[6-Chloro-2,4,8,22-tetraazatetracyclo[14.3.1.1(3,7).1(9,13)]docosa-1(20), 3(22),4,6,9(21),10,12,16,18-nonaen-12-yl]-2-cyanoacetamide trifluoroacetate] | 8.14 | 39 | 7.96 | 7.77 | 8.05 | – | – | – | – | – |
| CCS(=O)(=O)N1CCC(CC(=O)Nc2ccc3cc2CCc2cncc(c2)Nc2ncc(Cl)c(n2)N3)CC1 [Example A98, N-[6-Chloro-2,4,8,18,22-pentaazatetracyclo[14.3.1.1(3,7).1(9,13)]docosa-1(20),3(22),4,6,9(21),10,12,16,18-nonaen-12-yl]-2-[1-(ethylsulfonyl)piperidin-4-yl]acetamide bis(trifluoroacetate)] | 7.26 | 34 | 8.57 | 8.28 | 9.00 | – | – | – | – | – |
| Clc1cnc2nc1Nc1cccc(c1)OCCSc1cccc(c1)N2 [Example D15, 6-Chloro-14-oxa-17-thia-2,4,8,24-tetraazatetracyclo[16.3.1.1(3,7).1(9,13)]tetracosa-1(22),3(24),4,6,9(23),10,12,18,20-nonaene trifluoroacetate] | – | – | – | – | – | – | – | – | – | pIC50 ([1]; Table D1): 6.87; pIC50 ([2]; Table D1, 90 μM ATP): < 5.00; pIC50 ([3]; Table D1): 7.21; pIC50 (TYK2; Table D1): 7.06; pIC50 ([4]; Table D1): 7.03 |
| Cc1cc(C(=O)Nc2cc3cc(c2)OCCSc2cccc(c2)Nc2nc(ncc2Cl)N3)no1 [Example D58, N-[6-Chloro-17-oxa-14-thia-2,4,8,24-tetraazatetracyclo[16.3.1.1(3,7).1(9,13)]tetracosa-1(22),3(24),4,6,9(23),10,12,18,20-nonaen-20-yl]-5-methylisoxazole-3-carboxamide trifluoroacetate] | – | – | – | – | – | – | – | – | – | pIC50 ([1]; Table D1): 7.68; pIC50 ([2]; Table D1, 90 μM ATP): 6.31; pIC50 ([3]; Table D1): 8.89; pIC50 (TYK2; Table D1): 8.60; pIC50 ([4]; Table D1): 8.19 |
| O=C(Nc1ccc2cc1CCc1cccc(c1)Nc1ncc(Cl)c(n1)N2)[C@@H]1CCN(C(=O)NC2CCCC2)C1 [Example A63, (3R)—N(3)-[6-Chloro-2,4,8,22-tetraazatetracyclo[14.3.1.1(3,7).1(9,13)]docosa-1(20),3(22),4,6,9(21),10,12,16,18-nonaen-12-yl]-N(1)-cyclopentylpyrrolidine-1,3-dicarboxamide trifluoroacetate] | 8.59 | 29 | 8.60 | 7.89 | 8.05 | – | – | – | – | – |

Second part, led by results:

| pIC50 [1, 5] | ALK % of inhibition at a concentration of 500 nM or 1 mM [2, 6] [%] | pIC50 [3, 7] | pIC50 (TYK2) | pIC50 [4, 8] | pIC50 ([1]; Table B1) | pIC50 ([3]; Table B1) | pIC50 (TYK2; Table B1) | pIC50 ([4]; Table B1) | SMILES | also measured |
| --- | --- | --- | --- | --- | --- | --- | --- | --- | --- | --- |
| – | – | – | – | – | 7.92 | 8.70 | 8.16 | 8.55 | CC(CO)NC(=O)Nc1ccc2cc1CCc1cccc(c1)Nc1ncc(Cl)c(n1)N2 (stereo not shown) [Example B242, N-[6-Chloro-2,4,8,22-tetraazatetracyclo[14.3.1.1(3,7).1(9,13)]docosa-1(20),3(22),4,6,9(21),10,12,16,18-nonaen-12-yl]-N′-(2-hydroxy-1-methylethyl)urea trifluoroacetate] | ALK % of inhibition at a concentration of 500 nM or 1 mM [2, 9]: 16% |
| – | – | – | – | – | < 6.70 | 6.85 | < 6.70 | 7.28 | CN(Cc1ccc2cc1CCc1cncc(c1)Nc1ncc(Cl)c(n1)N2)C(=O)C1CCN(C(=O)c2ccno2)CC1 [Example B336, N-{[6-Chloro-2,4,8,18,22-pentaazatetracyclo[14.3.1.1(3,7).1(9,13)]docosa-1(20),3(22),4,6,9(21),10,12,16,18-nonaen-12-yl]methyl}-1-(isoxazol-5-ylcarbonyl)-N-methylpiperidine-4-carboxamide bis(trifluoroacetate)] | ALK % of inhibition at a concentration of 500 nM or 1 mM ([2]; percentage inhibition of the example compound at a concentration of 500 nM or 1 mM (not specified which)): 11% |
| – | – | – | – | – | 7.77 | 8.64 | 8.10 | 8.55 | O=C(Nc1ccc2cc1CCc1cccc(c1)Nc1ncc(Cl)c(n1)N2)c1ccno1 [Example B53, N-[6-Chloro-2,4,8,22-tetraazatetracyclo[14.3.1.1(3,7).1(9,13)]docosa-1(20), 3(22),4,6,9(21),10,12,16,18-nonaen-12-yl]isoxazole-5-carboxamide trifluoroacetate] | pIC50 [2, 10]: 6.14 |
| – | – | – | – | – | < 6.70 | < 6.70 | < 6.70 | 7.00 | O=C(Nc1ccc2cc1CCc1cncc(c1)Nc1ncc(Cl)c(n1)N2)N1CCNCC1 [Example B285, N-[6-Chloro-2,4,8,18,22-pentaazatetracyclo[14.3.1.1(3,7).1(9,13)]docosa-1(20),3(22),4,6,9(21),10,12,16,18-nonaen-12-yl]piperazine-1-carboxamidetrihydrochloride] | ALK % of inhibition at a concentration of 500 nM or 1 mM [2, 9]: 38% |
| – | – | – | – | – | 7.54 | 8.13 | 7.38 | 7.77 | Clc1cnc2nc1Nc1ccc(CN[C@H]3CCNC3)c(c1)CCc1cccc(c1)N2 [Example B223, (3S)—N-{[6-Chloro-2,4,8,22-tetraazatetracyclo[14.3.1.1(3,7).1(9,13)]docosa-1(20),3(22),4,6,9(21),10,12,16,18-nonaen-12-yl]methyl}pyrrolidin-3-amine tris(trifluoroacetate)] | ALK % of inhibition at a concentration of 500 nM or 1 mM [2, 9]: 41% |
| – | – | – | – | – | 7.40 | 8.62 | 8.66 | 8.89 | N#Cc1ccccc1S(=O)(=O)Nc1ccc2cc1CCc1cccc(c1)Nc1ncc(Cl)c(n1)N2 [Example B155, N-[6-Chloro-2,4,8,22-tetraazatetracyclo[14.3.1.1(3,7).1(9,13)]docosa-1(20), 3(22),4,6,9(21),10,12,16,18-nonaen-12-yl]-2-cyanobenzenesulfonamide trifluoroacetate] | pIC50 [2, 10]: < 6.00 |
| – | – | – | – | – | 8.59 | 9.36 | 8.77 | 9.02 | O=C(Nc1ccc2cc1CCc1cccc(c1)Nc1ncc(Cl)c(n1)N2)c1cccc(F)c1 [Example B48, N-[6-Chloro-2,4,8,22-tetraazatetracyclo[14.3.1.1(3,7).1(9,13)]docosa-1(20), 3(22),4,6,9(21),10,12,16,18-nonaen-12-yl]-3-fluorobenzamide trifluoroacetate] | pIC50 [2, 10]: 6.80 |
| – | – | – | – | – | < 6.70 | < 6.70 | 7.00 | 7.49 | O=C(Nc1ccc2cc1CCc1cncc(c1)Nc1ncc(Cl)c(n1)N2)N1CCN(c2ccccc2)CC1 [Example B292, N-[6-Chloro-2,4,8,18,22-pentaazatetracyclo[14.3.1.1(3,7).1(9,13)]docosa-1(20),3(22),4,6,9(21),10,12,16,18-nonaen-12-yl]-4-phenylpiperazine-1-carboxamide tris(trifluoroacetate)] | ALK % of inhibition at a concentration of 500 nM or 1 mM [2, 9]: 68% |
